From patent US12377100B2 (GILEAD SCIENCES, INC., priority 2015, dated 2025)

Legend:
Format in all cases: cell-based
TNFα = assay: PBMC cytokine profiling assay, TNFα induction; settings: Homo sapiens, PBMC, 24 h, human PBMCs, 24 hours incubation
Procedure: (§1) Certain compounds disclosed herein we tested according to the procedure described below. Additionally, certain reference compounds were prepared and tested along with the compounds of the present disclosure.
(§2) Compounds were dissolved and stored in DMSO (Sigma-Aldrich, St. Louis, MO) at 10 mM concentration.
(§3) Cryopreserved human PBMCs isolated from healthy donors were purchased from StemCell Technologies (Vancouver, Canada). Cell culture medium used was RPMI with L-Glutamine (Mediatech, Manassas, VA) supplemented with 10% fetal bovine serum (Hyclone, GE Healthcare, Logan, UT) and Penicillin-Streptomycin (Mediatech). Human TNFα, IL12p40, and IFNα2a 384-well Assay capture plates, standards, buffers and processing reagents were obtained from MesoScale Discovery Technologies (MSD; Rockville, MD).
(§4) Cryopreserved human PBMCs (1×10e8 cells/ml) were thawed at 37° C. and resuspended in 25 mL warm cell culture medium. The cells were pelleted at 200×g (Beckman Avanti J-E) for 5 min and resuspended in 20 mL of fresh culture media. Cells were counted using a Cellometer (Nexcelcom Bioscience), adjusted to 2×10e6 cells, and incubated for 2 hours in an incubator set at 37° C., 5% CO2 to recover from cryopreservation. Compounds were serially diluted in DMSO at half-log steps to generate a 10-point dose range. Using a Bravo pipette equipped with a 384 well head (Agilent), 0.4 μL of compound was transferred to each well of a 384 well black, clear bottom plate (Greiner Bio-One, Germany) containing 30 μL of cell culture medium. Recovered PBMCs were then dispensed into the assay plate at 50 μL per well (100k cells/well) using the MicroFlow multichannel dispenser (Biotek). Final DMSO concentration was 0.5%. DMSO was used as the negative control. The plates were incubated for 24 hours at 37° C. PBMCs in the assay plate were pelleted by centrifugation (Beckman Avanti J-E) at 200×g for 5 min.
(§5) Using a Biomek FX 384 well pipetting station (Beckman), conditioned culture medium (CCM) from the assay plate was transferred to MSD capture plates customized for each cytokine. For IFNα and IL12-p40 detection, 25 μL and 20 μL of CCM were added directly to each capture plate, respectively. For TNFα detection, CCM was diluted 1:9 in fresh culture medium, and 20 μL of diluted CCM was used. Serially diluted calibration standards for each cytokine were used to generate standard curves and establish assay linearity. The plates were sealed and incubated overnight at 4° C. in a plate shaker (Titer Plate) set at 200 rpm. On the following day, antibodies specific for each cytokine were diluted 1:50 in MSD Diluent 100 antibody dilution buffer. Diluted antibodies were added to corresponding capture plates at 10 μL/well, and incubated at RT for 1-2 hrs in the shaker. The plates were washed with PBST buffer (3×, 60 μl/well) using a Biotek Multiflow plate washer. MSD Read Buffer diluted to 2× in deionized water and 35 μL/well was added via Biomek FX instrument. The plates were read immediately in a MSD6000 reader. Data were normalized to positive and negative controls in each assay plate. AC50 values represent compound concentrations at half-maximal effect based on normalized percent activation and calculated by non-linear regression using Pipeline Pilot software (Accelrys, San Diego, CA).

IL12p40 = assay: PBMC cytokine profiling assay, IL12-p40 induction; settings: Homo sapiens, PBMC, 24 h, human PBMCs, 24 hours incubation
Procedure: as §1, §2, §3, §4, §5

IFNα = assay: PBMC cytokine profiling assay, IFNα induction; settings: human PBMCs, 24 hours incubation
Procedure: as §1, §2, §3, §4, §5

Row | SMILES | AC50 (TNFα) | AC50 (IL12p40) | AC50 (IFNα; Homo sapiens, PBMC, 24 h) | AC50 (IFNα)
1 | CCC[C@@H](CO)Nc1nc(N)nc2cccnc12 [Example 27C, (S)-2-((2-amino-[3,2-d]pyrimidin-4-yl)amino)pentan-1-ol] | 0.52 µM | 0.42 µM | 2 µM | –
2 | CCCC[C@@H](Nc1nc(N)nc2cccnc12)C(O)C(F)F (single isomer, unassigned) [Example 90] | 0.86 µM | 0.62 µM | 7.8 µM | –
3 | CCCC[C@H](CO)Nc1nc(N)nc2cc(Br)cnc12 [Example 82, (R)-2-((2-amino-7-bromopyrido[3,2-d]pyrimidin-4-yl)amino)hexan-1-ol] | 16.6 µM | 14.3 µM | > 50 µM | –
4 | C=CC[C@H](CO)Nc1nc(N)nc2cccnc12 [Example 108, (R)-2-((2-aminopyrido[3,2-d]pyrimidin-4-yl)amino)pent-4-en-1-ol] | 38.7 µM | 22 µM | > 50 µM | –
5 | CCCC[C@](C)(CNS(C)(=O)=O)Nc1nc(N)nc2cccnc12 [Example 53, (R)—N-(2-((2-aminopyrido[3,2-d]pyrimidin-4-yl)amino)-2-methylhexyl)methanesulfonamide] | 0.26 µM | 0.28 µM | 3.9 µM | –
6 | CCCC[C@H](CN)Nc1nc(N)nc2cccnc12 [Example 50, (R)—N^4-(1-aminohexan-2-yl)pyrido[3,2-d]pyrimidine-2,4-diamine] | 26.9 µM | 23.1 µM | > 50 µM | –
7 | CCC[C@H](CO)Nc1nc(N)nc2cccnc12 [Example 8, (R)-2-((2-aminopyrido[3,2-d]pyrimidin-4-yl)amino)pentan-1-ol] | 20.2 µM | 19.4 µM | > 50 µM | –
8 | CCCC[C@@H](Nc1nc(N)nc2cccnc12)C(O)CF (single isomer, unassigned) [Example 88] | 0.4 µM | 0.37 µM | 35.6 µM | –
9 | Nc1nc(N[C@H](CO)c2ccccc2)c2ncccc2n1 [Example 7, (S)-2-((2-aminopyrido[3,2-d]pyrimidin-4-yl)amino)-2-phenylethanol] | > 50 µM | > 50 µM | 34 µM | –
10 | CCCC[C@@H](Nc1nc(N)nc2cccnc12)C(=O)NCCO [Example 54, (R)-2-((2-aminopyrido[3,2-d]pyrimidin-4-yl)amino)-N-(2-hydroxyethyl)hexanamide] | 34 µM | 42.5 µM | > 50 µM | –
11 | CCCC[C@](C)(Nc1nc(N)nc2cccnc12)C(C)O (single isomer, unassigned) [Example 92] | 4.3 µM | 4.7 µM | > 50 µM | –
12 | CCC[C@@H](CO)Nc1nc(N)nc2cc(F)c(Cl)nc12 [Example 24D] | 3.4 µM | 3.1 µM | 18.4 µM | –
13 | CCCCC(Nc1nc(N)nc2cccnc12)C(C)O (stereo not drawn) [Example 103, 3-((2-aminopyrido[3,2-d]pyrimidin-4-yl)amino)heptan-2-ol] | 3.3 µM | 2.6 µM | – | 10.3 µM
14 | CCCC[C@@H](CO)Nc1nc(N)nc2ccc(C)nc12 [Example 40C, (S)-2-((2-amino-6-methylpyrido[3,2-d]pyrimidin-4-yl)amino)hexan-1-ol] | 0.94 µM | 0.87 µM | 2.4 µM | –
15 | CCCCNc1nc(N)nc2cc(Cl)cnc12 [Example 41, N^4-butyl-7-chloropyrido[3,2-d]pyrimidine-2,4-diamine] | 11 µM | 9.1 µM | 13 µM | –
16 | Nc1nc(N[C@@H](CO)CCCCF)c2ncccc2n1 [Example 74, (R)-2-((2-aminopyrido[3,2-d]pyrimidin-4-yl)amino)-6-fluorohexan-1-ol] | 9.1 µM | 9.6 µM | > 50 µM | –

Row | SMILES | AC50 (TNFα) | AC50 (IL12p40) | AC50 (IFNα; Homo sapiens, PBMC, 24 h) | AC50 (IFNα)
17 | CCC[C@@H](CO)Nc1nc(N)nc2c(Cl)cc(C)nc12 [Example 6B, (S)-2-((2-amino-8-chloro-6-methylpyrido[3,2-d]pyrimidin-4-yl)amino)pentan-1-ol] | > 50 µM | > 50 µM | > 50 µM | –
18 | CCCCC[C@H](CO)Nc1nc(N)nc2cccnc12 [Example 75, (R)-2-((2-aminopyrido[3,2-d]pyrimidin-4-yl)amino)heptan-1-ol] | 4 µM | 3.3 µM | 20.3 µM | –
19 | C=CC[C@](C)(CO)Nc1nc(N)nc2cccnc12 [Example 81, (R)-2-((2-aminopyrido[3,2-d]pyrimidin-4-yl)amino)-2-methylpent-4-en-1-ol] | 7.6 µM | 7.8 µM | > 50 µM | –
20 | CCCC[C@@H](CO)Nc1nc(N)nc2cc(F)cnc12 [Example 45, (S)-2-((2-amino-7-fluoropyrido[3,2-d]pyrimidin-4-yl)amino)hexan-1-ol] | 1.6 µM | 1.3 µM | 8.3 µM | –
21 | CCCC[C@@H](Nc1nc(N)nc2cccnc12)[C@@H](O)C(F)(F)F [Example 89, (2R,3R)-3-((2-aminopyrido[3,2-d]pyrimidin-4-yl)amino)-1,1,1-trifluoroheptan-2-ol] | 2.2 µM | 1.7 µM | > 50 µM | –
22 | CCCCNc1nc(N)nc2ccc(C(F)(F)F)nc12 [Example 32, N^4-butyl-6-(trifluoromethyl)pyrido[3,2-d]pyrimidine-2,4-diamine] | > 50 µM | > 50 µM | > 50 µM | –
23 | CCC[C@H](CO)Nc1nc(N)nc2ccc(C)nc12 [Example 38C, (R)-2-((2-amino-6-methylpyrido[3,2-d]pyrimidin-4-yl)amino)pentan-1-ol] | > 50 µM | > 50 µM | > 50 µM | –
24 | CCCC[C@@H](Nc1nc(N)nc2cccnc12)c1nnc[nH]1 [Example 56, (R)—N^4-(1-(4H-1,2,4-triazol-3-yl)pentyl)pyrido[3,2-d]pyrimidine-2,4-diamine] | 3.6 µM | 3.4 µM | 1.9 µM | –
25 | CCCCC[C@](C)(CNC(C)=O)Nc1nc(N)nc2cc(Cl)cnc12 [Example 117, (R)—N-(2-((2-amino-7-chloropyrido[3,2-d]pyrimidin-4-yl)amino)-2-methylheptyl)acetamide] | 0.37 µM | 0.33 µM | > 50 µM | –
26 | CC(C)CC[C@H](CO)Nc1nc(N)nc2cccnc12 [Example 76, (R)-2-((2-aminopyrido[3,2-d]pyrimidin-4-yl)amino)-5-methylhexan-1-ol] | 36.9 µM | 31.8 µM | 36.9 µM | –
27 | CCC[C@H](Nc1nc(N)nc2cccnc12)C(=O)NCC(C)(C)O [Example 35, (S)-2-((2-aminopyrido[3,2-d]pyrimidin-4-yl)amino)-N-(2-hydroxy-2-methylpropyl)pentanamide] | 39.4 µM | 22.6 µM | > 50 µM | –
28 | CCCC[C@H](CNS(C)(=O)=O)Nc1nc(N)nc2cccnc12 [Example 52, (R)—N-(2-((2-aminopyrido[3,2-d]pyrimidin-4-yl)amino)hexyl)methanesulfonamide] | 3.2 µM | 3.6 µM | > 50 µM | –
29 | CCCC[C@](C)(CO)Nc1nc(N)nc2cc(F)cnc12 [Example 98, (R)-2-((2-amino-7-fluoropyrido[3,2-d]pyrimidin-4-yl)amino)-2-methylhexan-1-ol] | 0.24 µM | 0.23 µM | 134 µM | –
30 | CCC[C@@H](CO)Nc1nc(N)nc2cc(C#N)cnc12 [Example 22, (S)-2-amino-4-((1-hydroxypentan-2-yl)amino)pyrido[3,2-d]pyrimidine-7-carbonitrile] | > 50 µM | > 50 µM | 35.9 µM | –
31 | CCCC[C@H](CO)Nc1nc(N)nc2cc(F)c(F)cc12 [Example 46C, (R)-2-((2-amino-6,7-difluoroquinazolin-4-yl)amino)hexan-1-ol] | 28.6 µM | 28.5 µM | > 50 µM | –
32 | CCC[C@H](Nc1nc(N)nc2cccnc12)C(=O)OC [Example 5B, (S)-methyl 2-((2-aminopyrido[3,2-d]pyrimidin-4-yl)amino)pentanoate] | > 50 µM | > 50 µM | 41 µM | –
